We go through 35 compounds from BindingDB's records for doi:10.7270/Q2H70D5W (University of Pittsburgh, 2007).

One may read the IC50 as the concentration that inhibits the measured activity by half. Read a low IC50 as higher potency.

The target in this experiment is Gag-Pol polyprotein (Human immunodeficiency virus type 1 group M subtype B (isolate HXB2), UniProt P04585). The experiment can be described thus: HIV-1 RT RNase H inhibitor potency, dose response, biochemical, probe assessment (AID 652). As to conditions: pH 8; 23 °C.

Consider `COc1ccc(C2C(C(C)=O)=C(C)N=c3sc(=Cc4ccc5c(c4)OCO5)c(=O)n32)cc1` (stereo not given) [SMR000020852], for which the IC50 turned out to be 7.02 µM.
As for `Cc1ccc(-n2c(N)c(C(=O)N3CCOCC3)sc2=S)cc1` [4-amino-3-(4-methylphenyl)-5-(4-morpholinylcarbonyl)-1,3-thiazole-2(3H)-thione], 4.9 µM corresponded to half-maximal inhibition (IC50).
For `c1ccc(Cc2nn3c(COc4ccccc4)nnc3s2)cc1` [3-(phenoxymethyl)-6-(phenylmethyl)-[1,2,4]triazolo[3,4-b][1,3,4]thiadiazole] the value was 1.36 µM.
`Cc1cccc(OCC(=O)Nc2cccc(-c3nnc(-c4ccccc4)o3)c2)c1C` [2-(2,3-dimethylphenoxy)-N-[3-(5-phenyl-1,3,4-oxadiazol-2-yl)phenyl]acetamide]: the IC50 came out at 3.92 µM.
The figure for `Cc1ccc(NC(=O)Cn2nnc(C(=O)Nc3ccc(C)c(C)c3)c2N)cc1` [5-amino-N-(3,4-dimethylphenyl)-1-[2-(4-methylanilino)-2-oxoethyl]-4-triazolecarboxamide] is 16.4 µM.
`CN(C)c1ccc(NC=C2C(=O)NC(=O)N(CCC3=CCCCC3)C2=O)cc1` [(5Z)-1-[2-(cyclohexen-1-yl)ethyl]-5-[[[4-(dimethylamino)phenyl]amino]methylidene]-1,3-diazinane-2,4,6-trione]: the IC50 turned out to be 3.8 µM.
With `Cc1cc(C)c2oc(-c3ccc(Cl)c(NC(=O)c4ccc(C#N)cc4F)c3)nc2c1` [MLS000052597], the IC50 is 2.73 µM.
In turn, `CCOC(=O)c1sc(NC(=O)CSc2nnc(-c3ccccc3)[nH]2)c(C#N)c1C` [ethyl 4-cyano-3-methyl-5-[[2-[(5-phenyl-1H-1,2,4-triazol-3-yl)sulfanyl]acetyl]amino]thiophene-2-carboxylate] had an IC50 of 0.67 µM.
For `C=CCSc1nc2c(c(=O)[nH]c(=O)n2C)n1C(C)C` [3-methyl-7-propan-2-yl-8-prop-2-enylsulfanylpurine-2,6-dione], the IC50 was more than 50 µM.
On to `CCOC(=O)c1c(C)[nH]c(C(=O)CSc2nc3ccccc3o2)c1C` [ethyl 5-[2-(1,3-benzoxazol-2-ylsulfanyl)ethanoyl]-2,4-dimethyl-1H-pyrrole-3-carboxylate], for which the IC50 stood at 7.6 µM.
The figure for `O=C1CCCC(=O)C1C(C#Cc1ccccc1)C1C(=O)CCCC1=O` [3-hydroxy-2-[1-(2-hydroxy-6-keto-cyclohexen-1-yl)-3-phenyl-prop-2-ynyl]cyclohex-2-en-1-one] is 1.08 µM.
As to `Cc1ccc(-n2c(N)c(C(=O)N3CCN(C)CC3)sc2=S)cc1` [4-amino-3-(4-methylphenyl)-5-[(4-methyl-1-piperazinyl)carbonyl]-1,3-thiazole-2(3H)-thione], the IC50 was more than 50 µM.
For the compound `CC(=O)c1cccc(NC(=O)c2cc(-c3ccc(C)cc3)on2)c1` [MLS000050755], the midpoint of inhibition, the IC50, lay at 13.3 µM.
Regarding `CN(C)c1cccc(C(=O)Nc2cccc(F)c2)c1` [3-(dimethylamino)-N-(3-fluorophenyl)benzamide], the IC50 turned out to be 12.2 µM.
Compound `COc1ccc(OC)c(CCNC(=O)Cn2sc3nc(C)cc(C)c3c2=O)c1` [MLS000118887] came in with an IC50 of 3.08 µM.
As to `O=C(NCCc1ccccc1)c1c(O)n2c3c(cccc3c1=O)CC2` [6-Hydroxy-4-oxo-1,2-dihydro-4H-pyrrolo[3,2,1-ij]quinoline-5-carboxylic acid phenethyl-amide], it took 9.94 µM to reach half-maximal inhibition (IC50).
In turn, `COCCSc1ccccc1C(=O)Nc1cc(C)on1` [2-(2-methoxyethylsulfanyl)-N-(5-methyl-1,2-oxazol-3-yl)benzamide] registered an IC50 of 10.8 µM.
`CCOC(=O)c1sc(=S)n2c1[nH]c(=O)c1ccc(C(=O)OC)cc12` [MLS000094734]: the IC50 was determined as 0.648 µM.
With `COc1cc(OC)c(C2CC(=O)N3CN(c4ccccc4C)CSC3=C2C#N)cc1OC` (stereo not given) [MLS000080656], the midpoint of inhibition, the IC50, lay at 4.51 µM.
In turn, `CCCCCn1c(=O)c(C(=O)NCc2ccncc2)c(O)c2ccccc21` [1-amyl-2-hydroxy-4-keto-N-(4-pyridylmethyl)quinoline-3-carboxamide] had an IC50 of 7.42 µM.
`COc1cccc(OC)c1-c1nn2c(-c3cc(-c4ccccc4)n[nH]3)nnc2s1` [MLS000083027] showed an IC50 of 3.81 µM.
Compound `Cc1cc(C)c(NC(=O)Cn2c(=O)n(Cc3ccco3)c(=O)c3ccccc32)c(C)c1` [2-[3-(2-furanylmethyl)-2,4-dioxo-1-quinazolinyl]-N-(2,4,6-trimethylphenyl)acetamide] displayed an IC50 of 47.8 µM.
The compound `c1ccc2c(c1)nnn2Cc1nnc2sc(-c3ccncc3)nn12` [3-(1-benzotriazolylmethyl)-6-pyridin-4-yl-[1,2,4]triazolo[3,4-b][1,3,4]thiadiazole] displayed an IC50 of 2.1 µM.
`O=C1CC(c2ccco2)Cc2nc(Nc3nc(-c4ccccc4)c4ccccc4n3)ncc21` (stereo not given) [7-(2-furanyl)-2-[(4-phenyl-2-quinazolinyl)amino]-7,8-dihydro-6H-quinazolin-5-one] showed an IC50 of 13.7 µM.
In turn, `CC(C)c1ccc2oc(-c3ccc(NC(=O)c4nnc[nH]4)cc3)nc2c1` yielded an IC50 of 5.64 µM.
The compound `c1ccc2c(c1)OCC(c1nnc3sc(-c4ccc5c(c4)OCO5)nn13)O2` (stereo not given) [6-(1,3-benzodioxol-5-yl)-3-(2,3-dihydro-1,4-benzodioxin-3-yl)-[1,2,4]triazolo[3,4-b][1,3,4]thiadiazole] displayed an IC50 of 1.46 µM.
For the compound `CC1CCc2c(sc(NC(=O)c3ccc(Cn4cc(Br)cn4)o3)c2C(N)=O)C1` (stereo not given) [2-({5-[(4-bromo-1H-pyrazol-1-yl)methyl]-2-furoyl}amino)-6-methyl-4,5,6,7-tetrahydro-1-benzothiophene-3-carboxamide], half-maximal inhibition (IC50) was put at 3.19 µM.
The figure for `COc1ccc(N2CSC3=C(C#N)C(c4cc(OC)c(OC)cc4OC)CC(=O)N3C2)c(OC)c1` (stereo not given) [MLS000117261] is 11.9 µM; for `COc1ccc(OC)c(Nc2nc(-c3ccc(O)c(O)c3)cs2)c1` [4-[2-(2,5-Dimethoxy-phenylamino)-thiazol-4-yl]-benzene-1,2-diol] it is 1.48 µM; for `C=CCn1c(N)c(C(=O)NCCC2=CCCCC2)sc1=S` [3-allyl-4-amino-N-(2-cyclohex-1-en-1-ylethyl)-2-thioxo-2,3-dihydro-1,3-thiazole-5-carboxamide] it is 3.82 µM.
For `C=CCn1c(=O)c(C(=O)Nc2nnc(C)s2)c(O)c2ccccc21` [1-allyl-2-hydroxy-4-keto-N-(5-methyl-1,3,4-thiadiazol-2-yl)quinoline-3-carboxamide], the IC50 was 16.8 µM.
`CCc1ccc(NC(=O)CSc2nc3cc(C(=O)OC)ccc3c(=O)n2Cc2ccco2)cc1` [2-[[2-(4-ethylanilino)-2-keto-ethyl]thio]-3-(2-furfuryl)-4-keto-quinazoline-7-carboxylic acid methyl ester] returned an IC50 of 2.32 µM.
Take `O=C(CSc1nnnn1-c1ccccc1)Nc1nsc(-c2ccc(Cl)cc2)n1` [MLS000085595]: the IC50 is 15.7 µM.
For `CCN1CCN(c2nc(C)nc3c2sc(=S)n3C)CC1` [7-(4-ethyl-1-piperazinyl)-3,5-dimethyl-2-thiazolo[4,5-d]pyrimidinethione] the value was 2.94 µM; for `COc1ccc2nc(O)c(CN(C3CCCCC3)C(c3nnnn3Cc3ccco3)C(C)C)cc2c1` (stereo not given) [3-[[cyclohexyl-[1-[1-(2-furanylmethyl)-5-tetrazolyl]-2-methylpropyl]amino]methyl]-6-methoxy-1H-quinolin-2-one], 1.03 µM.
